Results: patent publication US20240025856A1, “1,2,3,4-TETRAHYDROQUINOLINE DERIVATIVES AS INHIBITORS OF THE YAP/TAZ-TEAD ACTIVATION FOR TREATING CANCER” (KATHOLIEKE UNIVERSITEIT LEUVEN, priority 2020, published 2024)

How the values were obtained:
Assay type in all cases: cell-based
[1] = test system: YAP/TAZ-TEAD transcription; assay: Reporter gene assay for measuring the inhibition of YAP/TAZ-TEAD transcription (TEAD-responsive element luciferase reporter in Hek293T cells); details: Hek293T cells transiently transfected with TEAD-responsive element luciferase reporter, 24 hours incubation
Method in brief: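 Readout is SteadyLite luciferase luminescence from a TEAD-responsive element reporter transiently transfected into Hek293T cells, exposed to compounds for 24 h at 37 °C/5% CO2. IC50 derived from percent inhibition, scaled between vehicle basal activity (0%) and positive control inhibitor (100%).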

NCI-1H226 = assay: Mesothelioma cell line proliferation assay, H226 (ATPlite); details: Homo sapiens, NCI-H226, 144 h, 6 days with compound
Procedure: (§1) Mesothelioma cell lines, NCI-1H226 and NCI-1H2052 (all sourced from the ATCC cell culture collection) are plated in 96-well plates (Corning® 96 Well White Polystyrene Microplate clear flat bottom, white polystyrene (TC-Treated)), at 1500 cells/well in full medium (RPMI 1640 ATCC modification with L-glutamine, HEPES, Phenol Red, Sodium Pyruvate, High glucose, Low sodium bicarbonate and 10% fetal bovine serum). Cells are incubated overnight at 37° C. in an incubator with 5% C02. Then compounds, dissolved in DMSO, are added in dose-response. Cells are incubated with compound dilutions for another 6 days at 37° C. in an incubator with 5% C02. Cell viability is quantitated using the ATPlite kit (Perkin-Elmer) and the luminescence is read-out using an Envision instrument (Perkin-Elmer). The amount of relative light units produced using the ATPlite kit is used to calculated percent of inhibition.
(§2) The activities of some example compounds are depicted in the table below. The activity ranges A, B and C refer to EC50 values in the mesothelioma cell line proliferation assay as described as follows: “A”: EC50<1 μM; “B”: 1 μM s EC50≤10 μM and “C”: EC50≥10 μM; NT: not tested.

NCI-1H2052 = assay: Mesothelioma cell line proliferation assay, H2052 (ATPlite); details: Homo sapiens, NCI-H2052, 144 h, 6 days with compound, read-out: H2025 (EC50)
Procedure: as §1, §2

Row | SMILES | IC50 ([1]; Homo sapiens, HEK-293T, 24 h) [µM] | IC50 [1] [µM] | EC50 (NCI-1H226) [µM] | EC50 (NCI-1H2052) [µM]
1 | FC(F)(F)c1ccc(N2CC(C3CC(Br)=NO3)Cc3ccccc32)cc1 (single isomer, unassigned) [Cpd. No. 194(Dia1)-En1, 3-bromo-5-(1-(4-(trifluoromethyl)phenyl)-1,2,3,4-tetrahydroquinolin-3-yl)-4,5-dihydroisoxazole] |  | < 1 | < 1 | < 1
2 | C=CC(=O)NC1Cc2c(F)cccc2N(c2ccc(C(F)(F)F)cc2)C1 (stereo not drawn) [compound 060, N-(5-fluoro-1-(4-(trifluoromethyl)phenyl)-1,2,3,4-tetrahydroquinolin-3-yl)acrylamide] | < 1 |  | < 1 | < 1
3 | C=CC(=O)NC1Cc2nc(N)ccc2N(c2ccc(C(F)(F)F)cc2)C1 (stereo not drawn) [Cpd. No. 140, N-(6-amino-1-(4-(trifluoromethyl)phenyl)-1,2,3,4-tetrahydro-1,5-naphthyridin-3-yl)acrylamide] | < 1 |  | < 1 | < 1
4 | C=CC(=O)NC1Cc2ccccc2N(c2ccc(C(F)(F)F)cc2F)C1 (stereo not drawn) [compound 029, N-(1-(2-fluoro-4-(trifluoromethyl)phenyl)-1,2,3,4-tetrahydroquinolin-3-yl)acrylamide] | < 1 |  | < 1 | < 1
5 | C=CC(=O)NCC1Cc2c(CC#N)cccc2N(c2ccc(C(F)(F)F)cc2)C1 (stereo not drawn) [Cpd. No. 163, N-((5-(cyanomethyl)-1-(4-(trifluoromethyl)phenyl)-1,2,3,4-tetrahydroquinolin-3-yl)methyl)acrylamide] | < 1 |  | < 1 | < 1
6 | C=CC(=O)NCC1Cc2ccccc2N(c2ccc(C#N)cc2)C1 (stereo not drawn) [compound 147, N-((1-(4-cyanophenyl)-1,2,3,4-tetrahydroquinolin-3-yl)methyl)acrylamide] | < 1 |  | < 1 | < 1
7 | C=C(F)C(=O)NC1Cc2ccccc2N(c2ccc(C(F)(F)F)cc2)C1 (stereo not drawn) [compound 039, 2-fluoro-N-(1-(4-(trifluoromethyl)phenyl)-1,2,3,4-tetrahydroquinolin-3-yl)acrylamide] | < 1 |  | < 1 | < 1

Further lines, with some results ahead:

Row | IC50 ([1]; Homo sapiens, HEK-293T, 24 h) [µM] | IC50 [1] [µM] | SMILES | EC50 (NCI-1H226) [µM] | EC50 (NCI-1H2052) [µM]
8 | < 1 |  | C=CC(=O)NC1Cc2c(N)cccc2N(c2ccc(C(F)(F)F)cc2)C1 (stereo not drawn) [compound 075, N-(5-amino-1-(4-(trifluoromethyl)phenyl)-1,2,3,4-tetrahydroquinolin-3-yl)acrylamide] | < 1 | < 1
9 | < 1 |  | C=CC(=O)NC1Cc2cccnc2N(c2ccc(C(F)(F)F)cc2)C1 (stereo not drawn) [compound 081, N-(1-(4-(trifluoromethyl)phenyl)-1,2,3,4-tetrahydro-1,8-naphthyridin-3-yl)acrylamide] | < 1 | < 1
10 | < 1 |  | C=CC(=O)NC1Cc2c(CC#N)cccc2N(c2ccc(C(F)(F)F)cc2)C1 (stereo not drawn) [compound 164, N-(5-(cyanomethyl)-1-(4-(trifluoromethyl)phenyl)-1,2,3,4-tetrahydroquinolin-3-yl)acrylamide] | < 1 | < 1
11 | < 1 |  | CC(=O)NCC1Cc2c(N)cccc2N(c2ccc(C(F)(F)F)cc2)C1 (stereo not drawn) [compound 150, N-((5-amino-1-(4-(trifluoromethyl)phenyl)-1,2,3,4-tetrahydroquinolin-3-yl)methyl)acetamide] | < 1 | < 1
12 | < 1 |  | C=CC(=O)NC1Cc2ccncc2N(c2ccc(C(F)(F)F)cc2)C1 (stereo not drawn) [compound 083, N-(1-(4-(trifluoromethyl)phenyl)-1,2,3,4-tetrahydro-1,7-naphthyridin-3-yl)acrylamide] | < 1 | < 1
13 | < 1 |  | CC(=O)NCC1Cc2c(C#N)cccc2N(c2ccc(C(F)(F)F)cc2)C1 (stereo not drawn) [Cpd. No. 154, N-((5-cyano-1-(4-(trifluoromethyl)phenyl)-1,2,3,4-tetrahydroquinolin-3-yl)methyl)acetamide] | < 1 | 1 to 10
